Legend:
[1] = test system: phosphorylated ERK; experiment: Western blot of phosphorylated ERK in M5 tumors; type: in vivo, BALB/c nude mice; settings: vs control group
Method: The mice were observed daily for clinical signs, weighed them every three days, and at one month after tumor-cell implantation euthanized them with an overdose of anesthetic combined with carbon dioxide. Immediately before sacrificing the mice, the blood was collected from them under anesthesia for hematological assessment. After euthanizing the mice, the tumors were excised immediately. The tumor specimens were divided into two groups. One group was treated with 10% formalin and embedded the specimens in paraffin. These specimens were investigated by hematoxylin and eosin staining; terminal deoxyribonucleotidyl transferase (TdT)-mediated biotin-16-dUTP nick-end labeling (TUNEL assay; APO-BrdU TUNEL Assay Kit, BD Pharmingen, San Diego, CA, USA); and IHC for IL-1β, TNF-α, TGF-β, and CD44, using primary antibodies against these factors (Merck, Billerica, MA, USA). Protein expression was assessed via IHC with the […] mouse/rabbit polymer detection system produced by BioTnA (Kaohsiung, Taiwan). A high-resolution digital microscope (Moticam 2300, Motic Instruments, Richmond, Canada) equipped with Motic Images Plus (version 2.0) was used to capture and analyze the images. […] Protein expression and phosphorylation were quantified with ImageJ (National Institutes of Health, Bethesda, […], USA).

[2] = test system: M5 canine melanoma tumor; experiment: TUNEL/DAPI assay of apoptosis in excised M5 tumors; type: in vivo, BALB/c nude mice; settings: cisplatin 2 mg/kg, PTS 100 mg/kg IP three times per week
Method: (§1) The mice were observed daily for clinical signs, weighed them every three days, and at one month after tumor-cell implantation euthanized them with an overdose of anesthetic combined with carbon dioxide. Immediately before sacrificing the mice, the blood was collected from them under anesthesia for hematological assessment. After euthanizing the mice, the tumors were excised immediately. The tumor specimens were divided into two groups. One group was treated with 10% formalin and embedded the specimens in paraffin. These specimens were investigated by hematoxylin and eosin staining; terminal deoxyribonucleotidyl transferase (TdT)-mediated biotin-16-dUTP nick-end labeling (TUNEL assay; APO-BrdU TUNEL Assay Kit, BD Pharmingen, San Diego, CA, USA); and IHC for IL-1β, TNF-α, TGF-β, and CD44, using primary antibodies against these factors (Merck, Billerica, MA, USA). Protein expression was assessed via IHC with the […] mouse/rabbit polymer detection system produced by BioTnA (Kaohsiung, Taiwan). A high-resolution digital microscope (Moticam 2300, Motic Instruments, Richmond, Canada) equipped with Motic Images Plus (version 2.0) was used to capture and analyze the images. The other groups of tumor specimens were first minced coarsely and homogenized, and then stored in a freezer at -80° C.

[3] = test system: CD44; experiment: IHC analysis of CD44 in M5 tumors; type: in vivo, BALB/c nude mice; settings: relative to the control group
Method: as §1

[4] = test system: TNF-α; experiment: IHC analysis of TNF-α in M5 tumors; type: in vivo, BALB/c nude mice; settings: relative to the control group
Method: as §1

[5] = test system: M5 canine melanoma tumor; experiment: M5 canine melanoma tumor growth in implanted mice; type: in vivo, BALB/cByJNarl mice; settings: cisplatin 2 mg/kg; for Tumor mass: after excision from sacrificed mice, IP three times per week, PTS 100 mg/kg, mean ± SD; for Tumor mass reduction (%): relative to the control, PTS 100 mg/kg IP three times per week
Method: Male BALB/cByJNarl mice at six-weeks of age were obtained from National Laboratory Animal Breeding and Research Center, Taipei, Taiwan. Two mice were housed in each cage and provided them with sterile food and water. The mice were maintained under a constant temperature (22±2° C.) and relative humidity (55±5%), with a 12:12 h light:dark cycle. The Institutional Animal Care and Use Committee (IACUC) at the National […] University (IACUC Approval No.110003) reviewed and approved the study protocol, in which procedures were in accordance with the Guidelines for the Care and Use of Laboratory Animals published by the Taiwanese Ministry of Health and Welfare. The M5 canine melanoma cell line was obtained from the School of Veterinary Medicine at National Taiwan University. The cells were cultured in a humidified atmosphere (95% air, 5% CO2) at 37° C. in 90% high-glucose Dulbecc's Modified Eagle Medium supplemented with 5% fetal bovine serum, 50 IU/ml of penicillin, and […] of streptomycin (Gibco Laboratories, Grand Island, NY, USA). The cells were routinely passaged by removing the medium and overlaying the cell monolayer with 0.25% trypsin and 0.1% ethylenediaminetetraacetic acid. The experimental treatments were commenced after the implanted M5 cells had formed a detectable tumor mass, which was assessed on day 7 after implantation. Briefly, the mice were anesthetized via intraperitoneal injection of Zoletil (Virbac Taiwan, Taipei, Taiwan), and then subcutaneously injected 100 μl of cell suspension containing 10^7 viable M5 cells into a posterior leg. […] All treatments were administered via intraperitoneal injection. The control group received saline daily, while the three treatment groups received their corresponding treatments three times per week. The cisplatin group received 2 mg/kg cisplatin (Sigma; St. Louis, MO, USA). The PTS group was administered with 100 mg/kg PTS (Gongwin Biopharm Holding, Taipei, Taiwan). The cisplatin+PTS group received 100 mg/kg PTS and 2 mg/kg cisplatin. The dosage of cisplatin was selected such that this drug affects apoptosis, invasion, metastasis, angiogenesis, and the growth signal mechanisms in canine melanoma implanted in mice. […] The growth of the tumors was assessed every seven days by measuring their largest and smallest diameters, and calculated their volume according to the following formula: […] The mice were observed daily for clinical signs, weighed them every three days, and at one month after tumor-cell implantation euthanized them with an overdose of anesthetic combined with carbon dioxide. […] Protein expression was assessed via IHC with the […] mouse/rabbit polymer detection system produced by BioTnA (Kaohsiung, Taiwan). […]

[6] = test system: IL-1β; experiment: IHC analysis of IL-1β in M5 tumors; type: in vivo, BALB/c nude mice; settings: relative to the control group
Method: as §1

| Structure (SMILES) | phosphorylated ERK expression [1] | TUNEL-positive cell count as multiple of the control [2] | CD44 expression reduction [3] | TNF-α activity reduction [4] | Tumor mass [5] | Tumor mass reduction (%) [5] | IL-1β activity reduction [6] |
| --- | --- | --- | --- | --- | --- | --- | --- |
| N.N.[Cl][Pt][Cl] [Cisplatin, cisplatin, reference compound] | significantly higher | 3.9 times | about 40.9% | 77.4% | 1.37 ± 0.25 g | 48.7% | 29.7% |
| Cc1ccc(S(N)(=O)=O)cc1 [PTS, p-Toluenesulfonamide] | significantly higher | 3.5 times | ~34.4% | 73.0% | 1.48 ± 0.33 g | 44.2% | 26.5% |

— patent US12409158B2, “Combination therapy for treating cancer” (GONGWIN BIOPHARM CO., LTD, priority 2022, dated 2025)
